Results published in patent US9636021B2, “Flavonoid compounds of low toxicity for biological imaging applications” (The University of Akron, priority 2014, dated 2017).

How the values were obtained:
[1] = absorbance and fluorescence spectra in DMSO; format: physicochemical
From the text: The absorbance and fluorescence spectra of compounds 1-6 in dimethyl sulfoxide (DMSO) were investigated and the results are in Table 1.

[2] = target: bovine serum albumin (BSA) (Bos taurus, UniProt P02769); test: fluorescence turn-on with BSA in PBS buffer; format: binding; conditions: for detection limit (10% increase in fluorescence emission) / visual recognizable detection limit (S/N above 3:1): BSA; for F(+)/F(−) fluorescence intensity with BSA / without BSA: BSA 1.0 mg/ml; for F(+)/F(−) fluorescence intensity with BSA / without BSA / λabs(+) / λem(+) / λabs(−) / λem(−): 10 μM dye; for F(+)/F(−) fluorescence intensity with BSA / without BSA / λabs(+) / λem(+) / λabs(−) / λem(−) / fluorescence in the absence of BSA: 10 mM PBS, 0.5% DMSO, pH 7.4; for λabs(+) / λem(+): with BSA 1.0 mg/ml; for λabs(−) / λem(−): without BSA; for fluorescence in the absence of BSA: aqueous buffer
Procedure: In the aqueous buffer (0.5% DMSO, 10 mM of PBS, pH=7.4), the BSA binding-induced fluorescence turn-on was so large that it could be easily seen by naked eye. […] The intramolecular charge transfer along the D-A conjugated backbone plays a very important role in the environment-sensitivity of the flavone. All the evidence consistently pointed to the flavone dye entering the hydrophobic site of BSA.
Generally, the detection limit can be defined as the analyte concentration at which a 10% increase in fluorescence emission can be measured.
Therefore, the detection limits of compounds 1-6 were 2.6, 0.14, 0.59, 0.09, 14, and 3.4 μg/mL, respectively. For Off/On type fluorescent sensor, the Signal-to-Noise (S/N) ratio above 3:1 is considered reliable for visual evaluation. The visual recognizable detection limits of compounds 1-6 were calculated as 78, 4.2, 17.7, 2.7, 420, and 102 μg/mL, respectively. The reference range for serum albumin concentration in human blood plasma is approximately 35-50 mg/mL. Even in fish, the concentration of serum albumins can reach 0.5-5 mg/mL. The detection limits of the compounds were much lower than serum albumin concentration, indicating the capability for actual blood sample testing.

[3] = target: dye-BSA complexes (Bos taurus, UniProt P02769); test: photostability of dye-BSA complexes under continuous UV irradiation; format: physicochemical, bovine; conditions: 365 nm, 500 μW/cm2, 10 μM dye, 1.0 mg/mL BSA
Procedure: The photostability of flavone dyes 1-6 in the presence of BSA was also examined to evaluate the application for long-term imaging. The dye-BSA complexes (10 μM of compounds 1-6, 1.0 mg/mL of BSA in 10 mM PBS buffer containing 0.5% DMSO, pH=7.4) were placed in cuvette cells, then were continuously irradiated under a hand-held UV lamp (λ=365 nm, 500 μW/cm2).

Sequence of bovine serum albumin (BSA) (P02769 25-607): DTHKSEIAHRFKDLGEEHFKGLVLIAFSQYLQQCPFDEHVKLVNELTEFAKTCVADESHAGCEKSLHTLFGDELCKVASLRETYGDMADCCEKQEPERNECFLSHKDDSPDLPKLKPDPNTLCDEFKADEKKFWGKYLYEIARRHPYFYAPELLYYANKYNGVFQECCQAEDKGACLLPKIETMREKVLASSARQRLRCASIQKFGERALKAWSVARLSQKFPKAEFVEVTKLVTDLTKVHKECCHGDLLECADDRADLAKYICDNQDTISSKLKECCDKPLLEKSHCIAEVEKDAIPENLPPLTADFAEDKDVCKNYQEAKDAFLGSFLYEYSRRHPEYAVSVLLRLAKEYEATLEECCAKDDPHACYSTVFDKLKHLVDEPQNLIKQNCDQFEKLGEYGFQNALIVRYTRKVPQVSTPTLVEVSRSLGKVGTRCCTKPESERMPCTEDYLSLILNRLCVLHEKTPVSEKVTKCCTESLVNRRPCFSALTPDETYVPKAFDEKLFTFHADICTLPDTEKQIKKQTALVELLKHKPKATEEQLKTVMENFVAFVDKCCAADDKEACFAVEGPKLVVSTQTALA
Sequence of dye-BSA complexes (P02769 25-607, one chain of several): as the sequence (P02769 25-607) above

Nc1ccc(-c2oc3ccccc3c(=O)c2O)cc1 [compound 6, 2-(4-aminophenyl)-3-hydroxy-4H-chromen-4-one]
Φ [1]: 7.2% | λabs [1]: 394 nm | detection limit (10% increase in fluorescence emission) [2]: 3.4 µg/mL | visual recognizable detection limit (S/N above 3:1) [2]: 102 µg/mL | F(+)/F(−) fluorescence intensity with BSA / without BSA [2]: 29 | λabs(+) [2]: 386 nm | λem(+) [2]: 512 nm | λabs(−) [2]: 373 nm | λem(−) [2]: 522 nm | photostability under UV irradiation [3]: fluorescence quenching

CC(=O)Nc1ccc(-c2oc3ccccc3c(=O)c2O)cc1 [compound 5, N-(4-(3-hydroxy-4-oxo-4H-chromen-2-yl)phenyl)acetamide]
Φ [1]: 5.4% | λabs [1]: 363 nm | λem [1]: 505 nm | detection limit (10% increase in fluorescence emission) [2]: 14 µg/mL | visual recognizable detection limit (S/N above 3:1) [2]: 420 µg/mL | F(+)/F(−) fluorescence intensity with BSA / without BSA [2]: 7.0 | λabs(+) [2]: 365 nm | λem(+) [2]: 514 nm | λabs(−) [2]: 357 nm | λem(−) [2]: 452 nm | photostability under UV irradiation [3]: fluorescence quenching

Cc1ccc2oc(-c3ccc(N(C)C)cc3)c(O)c(=O)c2c1 [compound 3, 2-(4-(dimethylamino)phenyl)-3-hydroxy-6-methyl-4H-chromen-4-one]
Φ [1]: 11.0% | λabs [1]: 404 nm | detection limit (10% increase in fluorescence emission) [2]: 0.59 µg/mL | visual recognizable detection limit (S/N above 3:1) [2]: 17.7 µg/mL | F(+)/F(−) fluorescence intensity with BSA / without BSA [2]: 170 | fluorescence in the absence of BSA [2]: almost no fluorescence | λabs(+) [2]: 409 nm | λem(+) [2]: 552 nm | λabs(−) [2]: 400 nm | λem(−) [2]: 582 nm

CCOCc1ccc2oc(-c3ccc(N(C)C)cc3)c(O)c(=O)c2c1 [compound 2, 2-(4-(dimethylamino)phenyl)-6-(ethoxymethyl)-3-hydroxy-4H-chromen-4-one]
Φ [1]: 14.1% | λabs [1]: 403 nm | detection limit (10% increase in fluorescence emission) [2]: 0.14 µg/mL | visual recognizable detection limit (S/N above 3:1) [2]: 4.2 µg/mL | F(+)/F(−) fluorescence intensity with BSA / without BSA [2]: 740 | fluorescence in the absence of BSA [2]: almost no fluorescence | λabs(+) [2]: 415 nm | λem(+) [2]: 506 nm | λabs(−) [2]: 410 nm | λem(−) [2]: 555 nm
